This note sets out measurements from ChEMBL document CHEMBL3882391, “Substituted tricyclic compounds as protein kinase inhibitors” (2008).

The source made the active and inactive calls. The rule behind the calls is not given here.

Experiment [1] concerns the target T1, Aurora kinase A (Homo sapiens) (UniProt O14965).
T1 sequence (whole entry): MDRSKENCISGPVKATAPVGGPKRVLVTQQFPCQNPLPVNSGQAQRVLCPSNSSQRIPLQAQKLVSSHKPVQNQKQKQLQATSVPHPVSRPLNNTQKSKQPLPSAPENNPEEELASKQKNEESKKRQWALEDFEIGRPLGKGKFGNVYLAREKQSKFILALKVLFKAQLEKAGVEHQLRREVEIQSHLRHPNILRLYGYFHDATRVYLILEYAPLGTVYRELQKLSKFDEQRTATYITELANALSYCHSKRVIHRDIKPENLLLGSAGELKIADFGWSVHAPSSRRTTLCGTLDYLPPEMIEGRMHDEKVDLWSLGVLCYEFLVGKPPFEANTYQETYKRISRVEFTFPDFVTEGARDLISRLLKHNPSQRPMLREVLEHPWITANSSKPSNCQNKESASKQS
The experiment is described as follows: Inhibition of human recombinant aurora-2 kinase expressed in Sf9 cells at 20 uM using kemptide as substrate by kinase-Glo luciferase assay.

Experiment [2] has as its system A2780. The experiment is described as follows: Inhibition of cell proliferation of human A2780 cells at 0.1 to 1000 uM after 4 days by MTS assay. In kind it is functional, cell-based.
In experiment [3] the test system is T47D. The experiment is described as follows: Inhibition of cell proliferation of human T47D cells at 0.1 to 1000 uM after 4 days by MTS assay. In kind it is functional, cell-based.
Experiment [4] concerns MDA-MB-435. The experiment is described as follows: Inhibition of cell proliferation of human MDA-MB-435 cells at 0.1 to 1000 uM after 4 days by MTS assay. In kind it is functional, cell-based.
The subject of experiment [5] is Caco-2. The experiment is described as follows: Inhibition of cell proliferation of human Caco2 cells at 0.1 to 1000 uM after 4 days by MTS assay. Format: functional, cell-based.
Experiment [6] relates to MIA PaCa-2. The experiment is described as follows: Inhibition of cell proliferation of human MIAPaCa2 cells at 0.01 to 1000 uM after 4 days by MTS assay. Format: functional, cell-based.
Experiment [7] relates to MIA PaCa-2. The experiment is described as follows: Inhibition of cell proliferation of human MIAPaCa2 cells at 3 to 300 uM after 48 hrs by hematocytometry. In kind it is functional, cell-based.
Experiment [8] concerns COLO 320. The experiment is described as follows: Inhibition of cell proliferation of human COLO320 cells at 0.1 to 1000 uM after 4 days by MTS assay. In kind it is functional.
Experiment [9] has as its system PANC-1. The experiment is described as follows: Inhibition of cell proliferation of human PANC1 cells at 0.01 to 1000 uM after 4 days by MTS assay. In kind it is functional, cell-based.
For experiment [10], the system named is ASPC1. The experiment is described as follows: Inhibition of cell proliferation of human AsPC1 cells at 0.1 to 1000 uM after 4 days by MTS assay. Format: functional, cell-based.
Experiment [11] deals with MCF7. The experiment is described as follows: Inhibition of cell proliferation of human MCF7 cells at 0.1 to 1000 uM after 4 days by MTS assay. In kind it is functional, cell-based.

As to `O=S(=O)(Nc1ncccn1)c1ccc(Nc2ncnc3c2sc2ncccc23)cc1`, in [1], the inhibition result was “Active”.

With `COc1cc2[nH]c3ncnc(N4CCN(C(=S)Nc5ccc(S(=O)(=O)Nc6ncccn6)cc5)CC4)c3c2cc1OC`, the inhibition entry in [2], in experiment [3], in [4], in experiment [5], in [6] and in experiment [7] was “Active” in each case. In addition, the inhibition result in experiment [8], in [9], in [10] and in experiment [11] was “Active” in each case.

As for `COc1cc2ncnc(N3CCN(C(=S)Nc4ccc(S(=O)(=O)Nc5ncccn5)cc4)CC3)c2cc1OC`, the inhibition result in experiment [1] was “Active”.

As for `O=S(=O)(Nc1ncccn1)c1ccc(Nc2ncnc3c2oc2ccccc23)cc1`, the inhibition result in experiment [1] was “Active”.

Regarding `COc1cc2ncnc(Nc3cccc(Br)c3)c2cc1OC`, the inhibition entry in experiment [1] is “Active”.
